Source: patent US7615651B2, “Diaryl, dipyridinyl and aryl-pyridinyl derivatives and uses thereof” (Pfizer Inc., priority 2006, dated 2009)
pKi: −log10 of the molar value. Like-named read-outs stand apart in the source and are kept apart here.

Assays:
Format in all cases: biochemical
opioid receptor mu = molecular target: T1, opioid receptor mu (Homo sapiens, UniProt P35372); test: GTPγ[35S] binding assay, antagonism of endorphin
T1 construct: expressed in transfected cells
Protocol: (§1) Membranes were prepared from cells as described (Bass et al, 1996). GTPγ[5S] binding assays were performed in a 96 well FlashPlate™ format in duplicate using […] GTPγ[^35S] and 5 μg membrane per well in assay buffer composed of 50 mM Tris HCl, pH 7.4, 5 mM MgCl2, 1 mM EDTA, 100 mM NaCl, 30 μM GDP, 0.1% bovine serum albumin and the following protease inhibitors: 100 μg/ml bacitracin, 100 μg/ml benzamidine, 5 μg/ml aprotinin, 5 μg/ml leupeptin. The assay mix was then incubated at 30° C. with increasing concentrations of antagonist (10^−10 M to 10^−5 M) for 10 minutes and challenged with the agonists BW-373U86 (1 nM), dynorphin-A (10 nM), […] (1 μM) for opioid receptors delta, kappa, and mu, respectively. The assays were performed at 30° C. for one hour. The FlashPlates were then centrifuged at 2000×g for 10 minutes. Stimulation of GTPγ[^35S] binding was then quantified using a Wallac Microbeta and Ki calculations were done using Prism™ by Graphpad.

opioid receptor kappa = molecular target: T2, opioid receptor kappa (Homo sapiens, UniProt P41145); test: GTPγ[35S] binding assay, antagonism of dynorphin-A
T2 construct: expressed in transfected cells
T2 sequence (P41145 whole entry): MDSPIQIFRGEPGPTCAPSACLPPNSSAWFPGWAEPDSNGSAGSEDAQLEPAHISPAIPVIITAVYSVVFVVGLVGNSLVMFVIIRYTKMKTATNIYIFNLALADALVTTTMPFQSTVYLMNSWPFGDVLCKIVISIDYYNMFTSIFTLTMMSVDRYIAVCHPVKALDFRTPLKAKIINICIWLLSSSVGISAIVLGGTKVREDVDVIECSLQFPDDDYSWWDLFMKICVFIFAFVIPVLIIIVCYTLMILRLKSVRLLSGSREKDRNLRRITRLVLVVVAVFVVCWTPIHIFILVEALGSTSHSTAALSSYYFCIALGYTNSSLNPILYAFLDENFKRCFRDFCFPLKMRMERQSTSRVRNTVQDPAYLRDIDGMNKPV
Protocol: as §1

opioid receptor delta = molecular target: T3, opioid receptor delta (Homo sapiens, UniProt P41143); test: GTPγ[35S] binding assay, antagonism of BW-373U86; settings: read-out: Delta functional (GTPγ[35S] binding Ki)
T3 construct: expressed in transfected cells
T3 sequence (P41143 whole entry): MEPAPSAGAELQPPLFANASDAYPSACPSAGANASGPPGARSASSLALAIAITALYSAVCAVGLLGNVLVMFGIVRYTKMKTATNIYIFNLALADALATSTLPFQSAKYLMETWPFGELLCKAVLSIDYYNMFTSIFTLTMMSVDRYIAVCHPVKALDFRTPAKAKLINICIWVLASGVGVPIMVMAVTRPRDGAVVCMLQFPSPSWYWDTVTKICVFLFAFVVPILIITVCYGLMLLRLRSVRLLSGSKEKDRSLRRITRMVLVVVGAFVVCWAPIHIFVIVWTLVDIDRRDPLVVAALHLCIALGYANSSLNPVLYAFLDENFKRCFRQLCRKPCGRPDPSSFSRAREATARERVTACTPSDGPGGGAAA
Protocol: as §1

[1] = read-out: Mu functional (GTPγ[35S] binding Ki)
[2] = read-out: Kappa functional (GTPγ[35S] binding Ki)
[3] = average Ki, antagonism of endorphin (1 μM) stimulated GTPγ[35S] binding, mu opioid receptor membranes, read-out: Mu functional (GTPγ[35S] binding Ki)
[4] = average Ki, antagonism of dynorphin-A (10 nM) stimulated GTPγ[35S] binding, kappa opioid receptor membranes, read-out: Kappa functional (GTPγ[35S] binding Ki)
[5] = average Ki, antagonism of BW-373U86 (1 nM) stimulated GTPγ[35S] binding, delta opioid receptor membranes
[6] = read-out: Mu functional Ki (GTPγ[35S] binding)
[7] = read-out: Kappa functional Ki (GTPγ[35S] binding)
[8] = average Ki, antagonism of endorphin (1 μM) at mu opioid receptor membranes, read-out: Mu functional Ki (GTPγ[35S] binding)
[9] = average Ki, antagonism of dynorphin-A (10 nM) at kappa opioid receptor membranes, read-out: Kappa functional Ki (GTPγ[35S] binding)
[10] = average Ki, antagonism of endorphin (1 μM) at mu opioid receptor, read-out: Mu functional Ki (GTPγ[35S] binding)
[11] = average Ki, antagonism of dynorphin-A (10 nM) at kappa opioid receptor, read-out: Kappa functional Ki (GTPγ[35S] binding)

T1 sequence (P35372 whole entry): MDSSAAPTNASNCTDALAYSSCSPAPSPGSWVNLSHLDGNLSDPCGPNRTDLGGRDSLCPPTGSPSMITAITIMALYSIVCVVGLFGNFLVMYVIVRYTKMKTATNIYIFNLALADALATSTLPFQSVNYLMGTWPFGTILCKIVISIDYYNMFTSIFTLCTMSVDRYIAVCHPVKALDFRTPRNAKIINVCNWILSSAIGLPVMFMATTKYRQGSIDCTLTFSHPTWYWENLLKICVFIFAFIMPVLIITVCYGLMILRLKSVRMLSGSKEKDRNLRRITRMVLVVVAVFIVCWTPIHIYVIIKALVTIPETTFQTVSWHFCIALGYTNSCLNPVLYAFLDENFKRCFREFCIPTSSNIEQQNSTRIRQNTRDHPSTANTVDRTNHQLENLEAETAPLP

Compound | pKi (opioid receptor mu; [1]) | pKi (opioid receptor kappa; [2]) | pKi (opioid receptor delta) | other results
NC(=O)c1cc(-c2ccc(CNC3Cc4ccccc4C3)cc2)ccc1F [4A-03] | 7.60 | 7.22 | 7.28 | 
CC(C)CCNCc1ccc(-c2cc(F)cc(C(N)=O)c2)cc1 [4A-04] |  |  |  | pKi (opioid receptor mu; [3]): 7.04; pKi (opioid receptor kappa; [4]): 7.22; pKi (opioid receptor delta; [5]): 7.67
CC(C)CCNCc1ccc(-c2cccc(C(N)=O)c2)c(Cl)c1 [4A-05] |  |  |  | pKi (opioid receptor mu; [3]): 9.02; pKi (opioid receptor kappa; [4]): 8.01
NC(=O)c1cccc(-c2ccc(CNCC3CCCOC3)cc2Cl)c1 (stereo not shown) [4A-06] | 7.90 | 7.83 | 7.63 | 
NC(=O)c1cccc(-c2ccc(CNC[C@@H]3CCCO3)cc2Cl)c1 [4A-07] | 8.04 | 7.83 | 7.61 | 
NC(=O)c1cccc(-c2ccc(CNCCC3CCOCC3)cc2Cl)c1 [4A-08] | 8.46 | 7.89 | 8.55 | 
CC1(C)OCC(CNCc2ccc(-c3cccc(C(N)=O)c3)c(Cl)c2)O1 (stereo not shown) [4A-10] |  |  |  | pKi (opioid receptor mu; [3]): 8.07; pKi (opioid receptor kappa; [4]): 7.50; pKi (opioid receptor delta; [5]): 6.45
NC(=O)c1cccc(-c2ccc(CNC3CCc4ccccc43)cc2Cl)c1 (stereo not shown) [4A-11] | 8.20 | 8.11 | 7.67 | 
NC(=O)c1cccc(-c2ccc(CNCC3CCCCO3)cc2Cl)c1 (stereo not shown) [4A-12] | 7.82 | 7.74 | 7.64 | 
NC(=O)c1cccc(-c2ccc(CNCCC3CCCCO3)cc2Cl)c1 (stereo not shown) [4A-13] | 8.94 | 7.96 | 8.49 | 
CC(C)CCNCc1ccc(-c2ccc(C(N)=O)cc2)cc1 [4B-01] | 6.76 | 7.05 | 7.85 | 
CC(C)CCNCc1ccc(-c2ccc(C(N)=O)cc2C(F)(F)F)cc1 [4B-02] | 7.24 | 7.53 | 7.81 | 
Cc1cc(C(N)=O)ccc1-c1ccc(CNCc2ccccc2)cc1 [4B-03] | 8.50 | 8.74 | 8.40 | 
Cc1cc(C(N)=O)ccc1-c1ccc(CNCCC2CCOCC2)cc1 [4B-05] | 8.39 | 8.47 | 9.05 | 
Cc1cc(C(N)=O)ccc1-c1ccc(CNCCOC(C)C)cc1 [4B-06] | 7.99 | 8.07 | 8.19 | 
Cc1cc(C(N)=O)ccc1-c1ccc(CNCCc2ccccc2)cc1 [4B-09] | 8.56 | 8.21 | 8.74 | 
Cc1cc(C(N)=O)ccc1-c1ccc(CNCc2cccc(Cl)c2)cc1 [4B-10] | 9.03 | 8.80 | 9.22 | 
Cc1cc(C(N)=O)ccc1-c1ccc(CNCCC2CC2)cc1 [4B-11] | 8.08 | 8.24 | 8.15 | 
CC(C)CCNCc1ccc(-c2c(F)cc(C(N)=O)cc2F)cc1 [4B-12] | 7.32 | 7.57 | 7.77 | 
Cc1cc(C(N)=O)ccc1-c1ccc(CN2Cc3ccccc3C2)cc1 [4B-13] | 6.68 | 7.48 | 6.80 | 
Cc1cc(C(N)=O)cc(C)c1-c1ccc(CNCCC(C)C)cc1 [4B-14] | 7.06 | 7.53 | 8.20 | 
CC(C)CCNCc1ccc(-c2ccc(C(N)=O)c(F)c2)cc1 [4B-15] | 6.53 | 6.56 | 6.45 | 
COc1cc(C(N)=O)ccc1-c1ccc(CNCCC(C)C)cc1 [4B-46] |  |  |  | pKi (opioid receptor mu; [6]): 6.92; pKi (opioid receptor kappa; [7]): 7.83
CC(C)CCNCc1ccc(-c2cccc(-c3ncn[nH]3)c2)c(Cl)c1 [7A-04] |  |  |  | pKi (opioid receptor mu; [8]): 9.79; pKi (opioid receptor kappa; [9]): 9.10
Cc1cc(CNCCC(C)C)ccc1-c1cccc(-c2ncn[nH]2)c1 [7A-05] |  |  |  | pKi (opioid receptor mu; [8]): 9.30; pKi (opioid receptor kappa; [9]): 8.67
CC(C)CCNCc1cc(F)c(-c2cccc(-c3ncn[nH]3)c2)c(F)c1 [7A-06] |  |  |  | pKi (opioid receptor mu; [8]): 8.69; pKi (opioid receptor kappa; [9]): 8.34
CC(C)CCNCc1ccc(-c2cccc(NS(C)(=O)=O)c2)cc1 [8A-01] |  |  |  | pKi (opioid receptor mu; [10]): 7.84; pKi (opioid receptor kappa; [11]): 7.34
Cc1cc(NS(C)(=O)=O)ccc1-c1ccc(CNCCC(C)C)cc1 [8B-01] |  |  |  | pKi (opioid receptor mu; [10]): 6.15; pKi (opioid receptor kappa; [11]): 5.84
CC(C)CC[NH2+]Cc1ccc(-c2cccc(C(N)=O)c2)c(F)c1 [E5-01, (3′-Carbamoyl-2-fluoro-biphenyl-4-ylmethyl)-(3-methyl-butyl)-ammonium chloride] |  |  |  | pKi (opioid receptor mu; [6]): 7.85; pKi (opioid receptor kappa; [7]): 7.64
